Results on 2 compounds are retold here after patent US20160066550A1, “Animal Model Expressing Luciferase under Control of the Myelin Basic Protein Promoter (MBP-luci) and Use of the Model for Bioluminescence In Vivo Imaging” (SANOFI, priority 2009, published 2016).

Structures are written as SMILES. Where two headings read alike, the source gives them in different places.

For assay [1], the system named is MBP-luc line 171 heterozygous B6C3H mice. Put plainly: MBP-luci bioimaging, cuprizone model, demyelination phase, line 171 heterozygous. In kind it is in vivo, mouse. On the procedure:
(§1) Mice were imaged at week 0 (baseline), week 3 and week 4 data normalized to the week 0 baseline.
As described above, mice were injected with 250 mg/kg D-luciferin through SC, IP or IV. After 5 (intravenous) or 8 (intraperitoneal or SC) minutes, mice were imaged using the IVIS 100 (Xenogen) for 16 minutes (60 seconds imaging and 60 seconds interval for 8 pictures at bin size 8). To quantify bioluminescence, identical circular regions of interest were positioned to encircle each mouse head region, and the imaging signal was quantitated as average radiance (photons/s/cm2/steridian) using […] software (version 2.5, Xenogen). The head region of interest was kept constant in area and positioning within all experiments. Data were normalized to bioluminescence at the initiation of treatment for each animal.
as §1

In another assay the test system is MBP-luci mice. The assay is classed as in vivo, mouse. The settings on record: 0.2% cuprizone diet; for imaging signal drop: MBP 5k-luci line 171 (B6C3). On the procedure: To quantify bioluminescence, identical circular regions of interest were positioned to encircle each mouse head region, and the imaging signal was quantitated as average radiance (photons/s/cm2/steridian) using […] software (version 2.5, Xenogen).
As further proof, a MBP 5k-luci line 171 (B6C3 strain) was tested. […] There was significant imaging signal drop with cuprizone treatment (demyelination). For example, there is 43% signal drop from wk 0 to wk 4 and 74% signal drop from wk 0 to wk 6.
Three different MBP-luci lines (line 171 B6C3H het strain, line 121 C57BL/6 heterozygous strain and line 171 B6C3H homozygous strain) were compared by bioimaging and Luxol Fast Blue (LFB; myelin stain) histology. Mice were placed on a diet containing 0.2% cuprizone for 4 or 5 weeks. Imaging data were normalized to week 0 baseline measurements. At the end of each study, mouse brains were harvested and serial paraffin sections were stained for myelin with LFB. Average qualitative LFB score (0 to 5) was shown in the chart of FIG. 21. […] Line 171 B6C3H homozygous mice had the largest bioimaging signal reduction during cuprizone food feeding in the reference to their base line imaging before cuprizone food feeding. For example, after three weeks on the cuprizone diet, 171 B6C3H homozygous mice had 72% signal reduction (week 3 reference to week 0, p<0.05), while line 171 B6C3H heterozygous mice had 45% bioimaging signal reduction (reference to week 0, p<0.05). Line 121 C57 BL/6 heterozygous mice had the smallest reduction in luciferase signal (33% reduction at week 3 over week 0, p<0.05).

`OCCOCCN1CCN(C2=Nc3ccccc3Sc3ccccc32)CC1` [QTP, Quetiapine]: in assay [1] (10 mg/kg oral, week 3 and week 4 on cuprizone diet, first study (FIG. 17)), the “imaging signal vs vehicle control” value is on record as “significant increases”. In addition, the “cuprizone-induced bioimaging signal reduction” value in assay [1] (10 mg/kg, week 3, second study (FIG. 18), vehicle 47% reduction, p=0.028) is given as 25%. Also, the bioimaging signal increase in assay [1] (10 mg/kg, week 4, second study (FIG. 18), vehicle 25% reduction) is listed as 6%. In addition, the “transgene activity compared to the vehicle control group” value in assay [1] (10 mg/kg, weeks 3 and 4, second study (FIG. 18)) is “significantly greater transgene activity”.
Take `O=C(NN=C1CCCCC1)C(=O)NN=C1CCCCC1` [cuprizone, bis-cyclohexanone oxaidihydrazone]: the imaging signal drop is 43% in the assay on MBP-luci mice (wk 0 to wk 4) and 74% in the assay on MBP-luci mice (wk 0 to wk 6). In addition, the “reduction in luciferase signal” value in the assay with MBP-luci mice (week 3 over week 0, line 121 C57 BL/6 heterozygous, p<0.05) is on record as 33%. Moreover, the bioimaging signal reduction in the assay on MBP-luci mice (week 3 vs week 0, line 171 B6C3H heterozygous, p<0.05) came out at 45%; with MBP-luci mice (week 3 vs week 0, line 171 B6C3H homozygous, p<0.05) it was 72%.
